Source: publication PMC7229206, “Split Intein-Mediated Protein Ligation for detecting protein-protein interactions and their inhibition” (Nature Communications, 2020)

Biological target: T1, EGFR (Homo sapiens, UniProt P00533)
T1 construct: EGFR-IN; with SHC1
Experiment: SIMPL western blot of EGFR/SHC1 interaction in cells (indirect readout of EGFR kinase activity)
Assay type: cell-based

T1 sequence (P00533 25-1210): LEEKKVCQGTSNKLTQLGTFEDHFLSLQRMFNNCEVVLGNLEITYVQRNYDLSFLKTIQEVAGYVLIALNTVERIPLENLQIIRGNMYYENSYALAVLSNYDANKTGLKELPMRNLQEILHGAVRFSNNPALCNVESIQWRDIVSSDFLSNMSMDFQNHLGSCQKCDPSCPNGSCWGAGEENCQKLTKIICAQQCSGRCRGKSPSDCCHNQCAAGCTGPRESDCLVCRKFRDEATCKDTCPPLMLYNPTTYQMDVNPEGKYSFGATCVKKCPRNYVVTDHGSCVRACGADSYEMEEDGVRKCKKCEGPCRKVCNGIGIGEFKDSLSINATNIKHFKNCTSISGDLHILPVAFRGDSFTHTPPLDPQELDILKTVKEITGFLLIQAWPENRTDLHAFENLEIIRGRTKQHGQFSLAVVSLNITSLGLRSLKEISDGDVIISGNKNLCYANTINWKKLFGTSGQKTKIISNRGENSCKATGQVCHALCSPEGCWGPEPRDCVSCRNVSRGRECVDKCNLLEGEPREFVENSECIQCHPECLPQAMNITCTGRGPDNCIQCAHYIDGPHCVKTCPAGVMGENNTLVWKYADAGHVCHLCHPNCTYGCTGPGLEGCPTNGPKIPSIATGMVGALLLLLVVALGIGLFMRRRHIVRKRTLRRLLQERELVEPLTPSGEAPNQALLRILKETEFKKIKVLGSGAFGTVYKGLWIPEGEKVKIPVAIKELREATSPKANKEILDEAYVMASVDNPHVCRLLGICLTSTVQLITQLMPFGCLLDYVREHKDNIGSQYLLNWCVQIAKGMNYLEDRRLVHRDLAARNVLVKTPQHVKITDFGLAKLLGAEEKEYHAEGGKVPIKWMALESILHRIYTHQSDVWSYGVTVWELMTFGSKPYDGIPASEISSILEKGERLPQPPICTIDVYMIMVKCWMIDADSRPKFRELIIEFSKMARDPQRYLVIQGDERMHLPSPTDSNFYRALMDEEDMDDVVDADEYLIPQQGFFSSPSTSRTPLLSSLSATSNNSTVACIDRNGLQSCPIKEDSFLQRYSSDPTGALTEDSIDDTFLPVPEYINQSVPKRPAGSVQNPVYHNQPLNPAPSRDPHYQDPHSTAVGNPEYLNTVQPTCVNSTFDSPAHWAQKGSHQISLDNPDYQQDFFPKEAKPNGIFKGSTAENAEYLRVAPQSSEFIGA
T1 sequence (P29353 whole entry, further chain): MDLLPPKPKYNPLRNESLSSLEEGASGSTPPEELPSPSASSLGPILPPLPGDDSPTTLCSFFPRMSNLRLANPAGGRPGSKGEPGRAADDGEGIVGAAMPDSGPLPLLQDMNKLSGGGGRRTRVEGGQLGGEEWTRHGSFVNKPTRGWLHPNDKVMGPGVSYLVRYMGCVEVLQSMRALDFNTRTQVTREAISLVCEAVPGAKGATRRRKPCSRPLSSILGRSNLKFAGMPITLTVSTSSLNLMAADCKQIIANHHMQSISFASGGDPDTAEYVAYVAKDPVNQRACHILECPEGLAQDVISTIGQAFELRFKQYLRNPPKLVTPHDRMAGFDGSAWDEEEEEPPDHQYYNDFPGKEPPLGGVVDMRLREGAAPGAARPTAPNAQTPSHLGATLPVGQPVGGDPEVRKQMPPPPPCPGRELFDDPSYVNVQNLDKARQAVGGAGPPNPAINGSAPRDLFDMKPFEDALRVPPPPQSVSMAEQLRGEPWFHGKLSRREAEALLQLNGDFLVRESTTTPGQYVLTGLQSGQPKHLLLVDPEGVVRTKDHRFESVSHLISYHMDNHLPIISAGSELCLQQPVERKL

SMILES: COc1cc2ncnc(Nc3cccc(Cl)c3)c2cc1OC [AG1478]
- SIMPL western blot of EGFR/SHC1 interaction in cells (indirect readout of EGFR k): The spliced EGFR-SHC1 band observed by western blot diminished with increasing AG1478 concentration.
